In US4902698A, “Benzenesulphonamidopyridyl compounds which are useful as thromboxane A 2” (Smith Kline & French Laboratories Limited, priority 1988, dated 1990):

The molecules below were run against T1, TXA2 receptors (Homo sapiens, UniProt P21731) (assay: human platelet binding assay ([125I]PTA-OH as receptor ligand)). Details: 50% inhibition of specific [^125 I]PTA-OH binding, human platelets.
T1 construct: endogenous in cells; host or cells: human platelets
T1 sequence (P21731 1-343): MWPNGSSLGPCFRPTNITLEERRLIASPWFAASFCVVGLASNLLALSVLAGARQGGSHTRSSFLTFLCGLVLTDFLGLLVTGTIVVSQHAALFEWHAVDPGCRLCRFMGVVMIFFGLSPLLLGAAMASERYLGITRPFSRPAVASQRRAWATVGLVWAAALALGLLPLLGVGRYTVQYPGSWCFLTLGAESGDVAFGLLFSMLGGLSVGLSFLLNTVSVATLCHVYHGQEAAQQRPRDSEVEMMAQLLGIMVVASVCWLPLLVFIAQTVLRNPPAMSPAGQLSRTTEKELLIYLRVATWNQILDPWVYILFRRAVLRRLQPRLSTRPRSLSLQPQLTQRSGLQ
Protocol: As indicated above, compounds of the formula (I) have biological activity that is indicative of an ability to antagonise TXA2 receptors.
The platelet binding assay used was essentially the method described by Mais et al. J. Pharm. Exp. Ther., 1985, 235(3), 729-734 where [^125 I]PTA-OH was used as the receptor ligand.
The IC50 values represent the concentration which produces a 50% inhibition of specific [^125 I]PTA-OH binding.
The compounds of Examples 1 and 5 were tested in the human platelet binding assay.

In order of falling IC50:
1. O=C(O)CCc1ccc(NS(=O)(=O)c2ccc(Cl)cc2)cn1 [Example 8, 3-[5-(4-Chlorobenzenesulphonamido)pyrid-2-yl]propionic acid]  251 µM
2. O=C(O)CCCc1ncccc1NS(=O)(=O)c1ccccc1 [Example 4, 4-(3-Benzenesulphonamidopyrid-2-yl)butanoic acid]  102 µM
3. O=C(O)CCCc1ccc(S(=O)(=O)Nc2ccccc2)cn1 [Example 10, 4-[5-(Phenylsulphamoyl)pyrid-2-yl)butanoic acid]  28 µM
4. O=C(O)CCCc1ccc(S(=O)(=O)Nc2ccc(Cl)cc2)cn1 [Example 9, 4-[5-(4-Chlorophenylsulphamoyl)pyrid-2-yl]-butanoic acid]  21 µM
5. O=C(O)CCCc1ccc(NS(=O)(=O)c2cccc(C(F)(F)F)c2)cn1 [Example 12, 4-[5-(3-Trifluoromethylbenzenesulphonamido)-pyrid-2-yl]butanoic acid]  16 µM
6. COc1ccc(S(=O)(=O)Nc2ccc(CCCC(=O)O)nc2)cc1 [Example 11, 4-[5-(4-Methoxybenzenesulphonamido)pyrid-2-yl]butanoic acid]  5.2 µM
7. O=C(O)CCCCc1ccc(NS(=O)(=O)c2ccccc2)cn1 [Example 7, 5-[5-(Benzenesulphonamido)pyrid-2-yl]pentanoic acid]  4 µM
8. Cc1cc(NS(=O)(=O)c2ccccc2)cnc1CCCC(=O)O [Example 3, 4-(5-Benzenesulphonamido-3-methylpyrid-2-yl)butanoic acid]  2.6 µM
9. O=C(O)CCCc1ccc(NS(=O)(=O)c2ccc(Cl)c(Cl)c2)cn1 [Example 15, 4-[5-(3,4-Dichlorobenzenesulphonamido)pyrid-2-yl]butanoic acid]  2.1 µM
10. O=C(O)CCCc1ccc(NS(=O)(=O)c2ccccc2)cn1 [Example 1, 4-(5-Benzenesulphonamidopyrid-2-yl)butanoic acid]  1.3 µM
11. O=C(O)CCCc1ccc(NS(=O)(=O)c2cccc(Cl)c2)cn1 [Example 5, 4-[5-(3-Chlorobenzenesulphonamido)pyrid-2-yl]butanoic acid]  1.2 µM
12. O=C(O)CCCCc1ccc(NS(=O)(=O)c2ccc(Cl)cc2)cn1 [Example 6, 5-[5-(4-Chlorobenzenesulphonamido)pyrid-2-yl]pentanoic acid]  1 µM
13. Cc1ccc(S(=O)(=O)Nc2ccc(CCCC(=O)O)nc2)cc1 [Example 14, 4-[5-(4-Methylbenzenesulphonamido)pyrid-2-yl]butanoic acid]  0.6 µM
14. O=C(O)CCCc1ccc(NS(=O)(=O)c2ccc(Cl)cc2)cn1 [Example 2, 4-[5-(4-Chlorobenzenesulphonamido)pyrid-2-yl]-butanoic acid]  0.36 µM
15. O=C(O)CCCc1ccc(NS(=O)(=O)c2ccc(Br)cc2)cn1 [Example 13, 4-[5-(4-Bromobenzenesulphonamido)pyrid-2-yl]butanoic acid]  0.2 µM
